Assay results: US12350194B1, “Topical ocular delivery of fluids with controlled mass dosing and wireless communication” (Bausch + Lomb Ireland Limited, priority 2018, dated 2025)

Experiments:
eye of subjects = experiment: Presbyopia: pupil diameter after self-administered pilocarpine micro-dose; format: in vivo, human
Description: A 10 μl micro-dose of a 1% pilocarpine solution was self-administered using an electromagnetic actuated fluid delivery device, e.g., as described above, by three subjects to their own eye. The age range of the subjects was 52 years to 68 years, and all subjects were male. The pilocarpine micro-dose was self-administered by the subjects.
Baseline, pre-dose values of pupil diameter and near visual acuity in both eyes prior to dosing was measured for all subjects, and then following the baseline measurements, the subjects were dosed in only one eye (the eye with the poorer visual acuity) with the micro-dose pilocarpine solution. Approximately 45 to 60 minutes after dosing, pupil diameter and near visual acuity were again tested. Near visual acuity was measured using a Snellen card at a distance of 40 cm. A tabulation of results is given below in Table A.

[1] = test system: patients with primary open angle glaucoma; experiment: Trial 2: intraocular pressure by Goldmann applanation tonometry; format: in vivo, human; conditions: AcuStream vs standard eye dropper; Wilcoxon Ranked Sum test, p=0.3447
Description: Trial 2 compared the efficacy (dose volume equivalence) of 0.005% w/v latanoprost for intraocular pressure reduction when delivered via AcuStream™ (pre-trial calibration volume=9.2 μl) versus the standard eye dropper for topical drug delivery (approximate volume=30 μl).
Patients included in Trial 2 have previously been diagnosed with primary open angle glaucoma on the basis of intraocular pressure and visual field testing, fundus examination or optical coherence tomography (OCT) data and are currently on prostaglandin analog medical therapy. Patients with corneal abnormalities that would interfere with accurate IOP measurements with applanation tonometry, use of an oral or topical ophthalmic steroids within the past 14 days from screening date, any active ocular surface or anterior segment disease, or progressive field loss during the past year were excluded from the study. Thirteen men and five women participated in the trial. […]
After performing slit lamp examinations on each patient to verify eligibility and obtaining informed consent, intraocular pressure (IOP) was measured by a sole experienced examiner who was blind to the randomized conditions. […]
Latanoprost solution was administered by a sole ophthalmologist to both eyes of each patient, based on the pre-determined randomized condition.

Row | Structure (SMILES) | miotic effect in non-dosed eye (eye of subjects) | difference in IOP reduction between groups [1]
1 | CC[C@@H]1C(=O)OC[C@@H]1Cc1cncn1C [pilocarpine] | no miotic effect | –
2 | CC(C)OC(=O)CCC/C=C\C[C@@H]1[C@@H](CC[C@@H](O)CCc2ccccc2)[C@H](O)C[C@@H]1O [latanoprost] | – | no statistically significant differences
